Measured values taken from PubChem BioAssay AID330 (DTP/NCI, 2004).
Values joined by “and” are separate entries in the source; they are usually repeats but may differ in a detail not shown here. Equal entries are not always repeated. Toxic doses and inconclusive results are not listed.

Tested on: P388 leukemia ip, CD2F1 mice, survival T/C
Test: NCI In Vivo Anticancer Drug Screen. Data for tumor model P388 Leukemia (intraperitoneal) in CD2F1 (CDF1) mice
Conditions: endpoint: median survival time, higher = longer survival
Procedure, shortened: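 Mice carrying the transplanted tumor received test compound or vehicle. Survival was recorded in each group, and the value is the treated-group measurement divided by that of the vehicle-treated control group.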

[1] = dose: 50.0 mg/kg/injection, schedule: Q01DX005 (ip), vehicle: Klucel (hydroxypropylcellulose) (HPC)
[2] = dose: 100.0 mg/kg/injection, schedule: Q01DX005 (ip), vehicle: Klucel (hydroxypropylcellulose) (HPC)
[3] = dose: 200.0 mg/kg/injection, schedule: Q01DX005 (ip), vehicle: Klucel (hydroxypropylcellulose) (HPC)
[4] = dose: 60.0 mg/kg/injection, schedule: Q01DX005 (ip), vehicle: saline with Tween-80
[5] = dose: 120.0 mg/kg/injection, schedule: Q01DX005 (ip), vehicle: saline with Tween-80
[6] = dose: 50.0 mg/kg/injection, schedule: Q01DX005 (ip), vehicle: saline with Tween-80
[7] = dose: 100.0 mg/kg/injection, schedule: Q01DX005 (ip), vehicle: saline with Tween-80
[8] = dose: 200.0 mg/kg/injection, schedule: Q01DX005 (ip), vehicle: saline with Tween-80
[9] = dose: 12.5 mg/kg/injection, schedule: Q01DX009 (ip), vehicle: saline
[10] = dose: 25.0 mg/kg/injection, schedule: Q01DX009 (ip), vehicle: saline
[11] = dose: 50.0 mg/kg/injection, schedule: Q01DX009 (ip), vehicle: saline with Tween-80
[12] = dose: 100.0 mg/kg/injection, schedule: Q01DX009 (ip), vehicle: saline with Tween-80
[13] = dose: 200.0 mg/kg/injection, schedule: Q01DX009 (ip), vehicle: saline with Tween-80
[14] = dose: 25.0 mg/kg/injection, schedule: Q01DX005 (ip), vehicle: saline with Tween-80
[15] = dose: 100.0 mg/kg/injection, schedule: Q01DX001 (ip), vehicle: saline with Tween-80
[16] = dose: 200.0 mg/kg/injection, schedule: Q01DX001 (ip), vehicle: saline with Tween-80
[17] = dose: 400.0 mg/kg/injection, schedule: Q01DX001 (ip), vehicle: saline with Tween-80

O=C(NC(Cc1ccc(Br)cc1)C(=O)O)c1ccc(I)cc1 (stereo not drawn)
T/C [1]: 98 % of control
T/C [2]: 98 % of control
T/C [3]: 107 % of control

O=c1oc(-c2ccc(Cl)cc2Cl)nc2cc(Cl)ccc12
T/C [4]: 104 % of control
T/C [5]: 112 % of control

CCOC(=O)Nc1c(CCO)n[nH]c1C
T/C [6]: 108 % of control
T/C [7]: 101 % of control
T/C [8]: 97 % of control

CC(O)CN(CCN(CC(C)O)CC(C)O)CC(C)O.[Cl-].[Zn+2] (stereo not drawn)
T/C [9]: 117 % of control
T/C [10]: 122 % of control

COC(=O)C1c2ccc(OC)c(OC)c2C(=O)N2CCc3cc4c(cc3C12)OCO4 (stereo not drawn)
T/C (dose: 50.0 mg/kg/injection, schedule: Q04DX003 (ip), vehicle: distilled water + Tween-80): 95 % of control
T/C (dose: 100.0 mg/kg/injection, schedule: Q04DX003 (ip), vehicle: distilled water + Tween-80): 101 % of control
T/C (dose: 200.0 mg/kg/injection, schedule: Q04DX003 (ip), vehicle: distilled water + Tween-80): 95 % of control
T/C (dose: 400.0 mg/kg/injection, schedule: Q04DX003 (ip), vehicle: distilled water + Tween-80): 104 % of control

CC=C=CCN(C)Cc1ccccc1
T/C (dose: 6.25 mg/kg/injection, schedule: Q01DX009 (ip), vehicle: saline): 107 % of control
T/C [9]: 94 % of control
T/C [10]: 109 % of control
T/C (dose: 50.0 mg/kg/injection, schedule: Q04DX003 (ip), vehicle: Klucel (hydroxypropylcellulose) (HPC)): 108 % of control
T/C (dose: 100.0 mg/kg/injection, schedule: Q04DX003 (ip), vehicle: Klucel (hydroxypropylcellulose) (HPC)): 88 % of control

CC(=O)OC1CCC2(C)C(C1)CC(OC(C)=O)C1C2CC(OC(C)=O)C2(C)C(C(C)CC=C(c3ccccc3)c3ccccc3)CCC12 (stereo not drawn)
T/C [11]: 100 % of control
T/C [12]: 98 % of control
T/C [13]: 99 % of control

CCOc1cc2c3c(c(C)cc2cn1)CCC3=O
T/C (dose: 6.25 mg/kg/injection, schedule: Q01DX009 (ip), vehicle: distilled water + Tween-80): 96 % of control
T/C (dose: 12.5 mg/kg/injection, schedule: Q01DX009 (ip), vehicle: distilled water + Tween-80): 100 % of control
T/C (dose: 25.0 mg/kg/injection, schedule: Q01DX009 (ip), vehicle: distilled water + Tween-80): 114 % of control
T/C (dose: 50.0 mg/kg/injection, schedule: Q01DX009 (ip), vehicle: distilled water + Tween-80): 98 % of control and 96 % of control
T/C (dose: 100.0 mg/kg/injection, schedule: Q01DX009 (ip), vehicle: distilled water + Tween-80): 115 % of control and 87 % of control
T/C (dose: 200.0 mg/kg/injection, schedule: Q01DX009 (ip), vehicle: distilled water + Tween-80): 118 % of control

CCOC(=O)/C(C#N)=C(\C)c1ccc(O)c(OC)c1
T/C [4]: 100 % of control
T/C [5]: 101 % of control
T/C (dose: 240.0 mg/kg/injection, schedule: Q01DX005 (ip), vehicle: saline with Tween-80): 95 % of control

CN1[C@H]2C=CC(=O)[C@]1(Cl)[C@H]1C(=O)N(c3ccccc3)C(=O)[C@@H]21
T/C [14]: 106 % of control
T/C [6]: 109 % of control
T/C [7]: 105 % of control
T/C [8]: 118 % of control

Cc1cc(=O)n(-c2ccc(S(N)(=O)=O)cc2)c(C)c1C(=O)O
T/C [6]: 98 % of control
T/C [7]: 96 % of control
T/C [8]: 103 % of control

C(=N/c1ccccn1)/c1ccc(/C=N\c2ccccn2)cc1
T/C [11]: 108 % of control
T/C [12]: 100 % of control
T/C [13]: 106 % of control
T/C (dose: 400.0 mg/kg/injection, schedule: Q01DX009 (ip), vehicle: saline with Tween-80): 116 % of control

CC(=O)OC1CC(O)CC2=CCC3C4CCC(C(C)(O)C(O)CC5COC(=O)C5C)C4(C)CCC3C21C (stereo not drawn)
T/C (dose: 4.0 mg/kg/injection, schedule: Q01DX005 (ip), vehicle: distilled water + Tween-80): 96 % of control
T/C (dose: 8.0 mg/kg/injection, schedule: Q01DX005 (ip), vehicle: distilled water + Tween-80): 95 % of control
T/C (dose: 16.0 mg/kg/injection, schedule: Q01DX005 (ip), vehicle: distilled water + Tween-80): 96 % of control
T/C (dose: 32.0 mg/kg/injection, schedule: Q01DX005 (ip), vehicle: distilled water + Tween-80): 91 % of control and 97 % of control
T/C (dose: 64.0 mg/kg/injection, schedule: Q01DX005 (ip), vehicle: distilled water + Tween-80): 87 % of control and 94 % of control

CN(C)c1ccc(/C=C/C2=[N+](C)c3ccccc3C2(C)C)cc1
T/C (dose: 0.03 mg/kg/injection, schedule: Q01DX009 (ip), vehicle: saline): 110 % of control
T/C (dose: 0.07 mg/kg/injection, schedule: Q01DX009 (ip), vehicle: saline): 97 % of control

CNC(=S)OCCn1c([N+](=O)[O-])cnc1C
T/C [15]: 92 % of control
T/C [16]: 106 % of control
T/C [17]: 105 % of control

CCCn1c(Cl)c(/C=N\Nc2cccc([N+](=O)[O-])c2)c2ccccc21
T/C [15]: 91 % of control
T/C [16]: 92 % of control
T/C [17]: 91 % of control

COc1ccc(C(=O)C(Br)CS(=O)(=O)c2ccc(C)cc2)cc1 (stereo not drawn)
T/C (dose: 100.0 mg/kg/injection, schedule: Q04DX002 (ip), vehicle: saline): 100 % of control
T/C (dose: 200.0 mg/kg/injection, schedule: Q04DX002 (ip), vehicle: saline): 102 % of control
T/C (dose: 400.0 mg/kg/injection, schedule: Q04DX002 (ip), vehicle: saline): 108 % of control

Cc1ccsc1S(N)(=O)=O
T/C (dose: 12.5 mg/kg/injection, schedule: Q01DX005 (ip), vehicle: Klucel (hydroxypropylcellulose) (HPC)): 95 % of control
T/C (dose: 25.0 mg/kg/injection, schedule: Q01DX005 (ip), vehicle: Klucel (hydroxypropylcellulose) (HPC)): 98 % of control
T/C [1]: 106 % of control and 107 % of control
T/C [2]: 113 % of control
T/C [3]: 113 % of control

CC(=O)OC1CC(C)(O)Cc2cc3c(c(O)c21)C(=O)c1c(O)cc2c(c1C3=O)OC1OC2(C)C(O)C(N(C)C)C1O (stereo not drawn)
T/C (dose: 3.5 mg/kg/injection, schedule: Q01DX009 (ip), vehicle: other): 153 % of control
T/C (dose: 7.0 mg/kg/injection, schedule: Q01DX009 (ip), vehicle: other): 166 % of control
T/C (dose: 14.0 mg/kg/injection, schedule: Q01DX009 (ip), vehicle: other): 167 % of control

CCCCCCC(/C=C/c1ccc(Cl)c(Cl)c1)=N\NC(N)=O
T/C (dose: 50.0 mg/kg/injection, schedule: Q01DX009 (ip), vehicle: saline): 104 % of control
T/C (dose: 100.0 mg/kg/injection, schedule: Q01DX009 (ip), vehicle: saline): 100 % of control
T/C (dose: 200.0 mg/kg/injection, schedule: Q01DX009 (ip), vehicle: saline): 98 % of control

CN(/N=C/c1ccccc1O)C(=O)Nc1cc(C(F)(F)F)ccc1Cl
T/C [14]: 100 % of control
T/C [6]: 100 % of control and 102 % of control
T/C [7]: 94 % of control and 96 % of control
T/C [8]: 91 % of control and 94 % of control

COc1ccc(C2C3C(=O)OCCOC(=O)C3C2c2ccc(OC)c(OC)c2)cc1OC (stereo not drawn)
T/C [6]: 99 % of control
T/C [7]: 104 % of control
T/C [8]: 99 % of control

COC1/C=C/OC2(C)Oc3c(C)c(O)c4c(O)c(c(/C=N/N(C)C5OC(COC(=O)c6ccccc6)C(OC(=O)c6ccccc6)C5OC(=O)c5ccccc5)c(O)c4c3C2=O)NC(=O)C(C)=C/C=C/C(C)C(O)C(C)C(O)C(C)C(OC(C)=O)C1C (stereo not drawn)
T/C (dose: 12.5 mg/kg/injection, schedule: Q01DX009 (ip), vehicle: saline with Tween-80): 104 % of control
T/C (dose: 25.0 mg/kg/injection, schedule: Q01DX009 (ip), vehicle: saline with Tween-80): 107 % of control
T/C [11]: 108 % of control and 112 % of control
T/C [12]: 114 % of control
T/C [13]: 117 % of control

C=C(C)[C@H]1CN[C@H](C(=O)O)[C@H]1CC(=O)O
T/C (dose: 0.62 mg/kg/injection, schedule: Q01DX005 (ip), vehicle: saline): 98 % of control
T/C (dose: 1.25 mg/kg/injection, schedule: Q01DX005 (ip), vehicle: saline): 92 % of control
T/C (dose: 2.5 mg/kg/injection, schedule: Q01DX005 (ip), vehicle: saline): 99 % of control and 92 % of control
T/C (dose: 5.0 mg/kg/injection, schedule: Q01DX005 (ip), vehicle: saline): 93 % of control and 96 % of control
T/C (dose: 10.0 mg/kg/injection, schedule: Q01DX005 (ip), vehicle: saline): 99 % of control and 101 % of control
T/C (dose: 20.0 mg/kg/injection, schedule: Q01DX005 (ip), vehicle: saline): 100 % of control and 116 % of control
T/C (dose: 40.0 mg/kg/injection, schedule: Q01DX005 (ip), vehicle: saline): 105 % of control
